# Where “and” joins values, the source holds several entries; their conditions need not be identical. Equal entries are not always repeated.
# Tests used:
# Type in all cases: in vivo
# [1] = tested on: modified HGP-30 (mH, SEQ ID NO:6); assay: Isotype analysis (ELISA) of anti-mH antibody in sera of immunized mice; parameters: IgG1 / IgG2a / IgG2b / IgG3: unit not given here; details: for IgG1 / IgG2a / IgG2b / IgG3: ELISA signal, day 42 test bleeding; for Ig1, serial dilution 1:200 / Ig1, serial dilution 1:800 / Ig1, serial dilution 1:3200 / Ig1, serial dilution 1:12800 / Ig1, serial dilution 1:51200 / Ig1, serial dilution 1:204800 / Ig2a, serial dilution 1:200 / Ig2a, serial dilution 1:800 / Ig2a, serial dilution 1:3200 / Ig2a, serial dilution 1:12800 / Ig2a, serial dilution 1:51200 / Ig2a, serial dilution 1:204800 / Ig2b, serial dilution 1:200 / Ig2b, serial dilution 1:800 / Ig2b, serial dilution 1:3200 / Ig2b, serial dilution 1:12800 / Ig2b, serial dilution 1:51200 / Ig2b, serial dilution 1:204800 / Ig3, serial dilution 1:200 / Ig3, serial dilution 1:800 / Ig3, serial dilution 1:3200 / Ig3, serial dilution 1:12800 / Ig3, serial dilution 1:51200 / Ig3, serial dilution 1:204800: day 28 pool
# Protocol: (§1) Mice in groups (5-10 animals per group as designated) are immunized with the LEAPS constructs (25 μg/dose) of SEQ ID NO's:37, 38 and 39, in 0.2 mL emulsified 1:1 with adjuvant (Seppic's ISA-51 or Corixa's microfluidized MPL S/E) on days 0 and 14. Mice are evaluated by Delayed Type of Hypersensitivity (DTH) by inoculation on day 26 with 20 μl of a solution of saline or mH (SEQ ID NO:6) (25 μg in saline) in the left or right ear respectively. The DTH response is determined by measurement of the ear thickness 48 hours later and expressed as increase in ear thickness (mm) of experimental ear compared to that of the control ear. Individual animal sera are collected for measurement of antibody on day 28, 42, 63 and 77. Sera from individual animals and group pools are evaluated for specific anti-mH antibody, for total antibody, IgG1, IgG2a and IgG3 antibody isotype and cross clade titer at selected time points as indicated.
# The results of an isotype analysis of day 42 test bleedings with G′-mH (SEQ ID NO:37), G-mH (SEQ ID NO:38), J-mH (SEQ ID NO:39), F-mH (SEQ ID NO:40) and F-HGP-30 (SEQ ID NO:41), are shown in Table 1.
# An isotype analysis for pools of day 28 test bleedings G-mH, G′-mH and m-HGP-30/KLH using either MPL S/E or ISA51 as adjuvant, are shown in Table 3.
# modified HGP-30 = assay: ELISA antibody screening of sera of immunized mice on modified HGP-30; details: for ELISA test antigen Modified HGP-30: day 42 test bleeding
# Protocol: as §1, with “indicated. […]” for “indicated.”
# D Clade = assay: ELISA cross clade recognition by sera of immunized mice, D Clade; details: for ELISA test antigen D Clade: day 42 test bleeding, Group Average
# Protocol: as §1
# The mouse sera for the ELISA was used at a dilution of 1:200. Again, clearly, the construct provides higher signals indicative of higher levels of the antibodies that recognized other clades besides the parental one (Clade B) of mH.
# A cross clade analysis for pools of day 42 test bleedings from the same groups as used in Table 3, were obtained and the results are shown in Table 4.
# [2] = group without '(with MPL)' (ISA51)
# [3] = day 63 test bleeding, sera 1:200, individual mouse
substance,measurement,setting,value
"DGQ EEK AGV VST GLI GGG ATL YSV HQR IDV KDT KEA LEK IEE EQN KS (DGQEEKAGVVSTGLIGGGYLSGANLNL) [SEQ ID NO: 57, Peptide G′ linked by GGG spacer to modified HGP-30 (mH)]",IgG1,[1]; group Average,2.667
same,IgG2a,[1]; group Average,1.427
same,IgG2b,[1]; group Average,1.695
same,IgG3,[1]; group Average,1.562
same,IgG1,[1]; individual mouse,2.577 and 2.623 and 2.588 and 2.601 and 2.757 and 2.886 and 2.768 and 2.574 and 2.628 and 2.671
same,IgG2a,[1]; individual mouse,1.399 and 1.302 and 1.630 and 0.467 and 1.249 and 2.275 and 0.998 and 1.693 (2×) and 1.566
same,IgG2b,[1]; individual mouse,2.050 and 1.588 and 1.735 and 0.534 and 1.261 and 2.717 and 1.656 and 2.009 and 1.613 and 1.785
same,IgG3,[1]; individual mouse,1.853 and 1.268 and 1.856 and 1.229 and 2.186 and 1.921 and 1.276 and 2.181 and 0.672 and 1.183
same,"Ig1, serial dilution 1:200",[1]; [2],3.006
same,"Ig1, serial dilution 1:800",[1]; [2],2.441
same,"Ig1, serial dilution 1:3200",[1]; [2],1.755
same,"Ig1, serial dilution 1:12800",[1]; [2],1.069
same,"Ig1, serial dilution 1:51200",[1]; [2],0.367
same,"Ig1, serial dilution 1:204800",[1]; [2],0.114
same,"Ig2a, serial dilution 1:200",[1]; [2],0.729
same,"Ig2a, serial dilution 1:800",[1]; [2],0.218
same,"Ig2a, serial dilution 1:3200",[1]; [2],0.068
same,"Ig2a, serial dilution 1:12800",[1]; [2],0.025
same,"Ig2a, serial dilution 1:51200",[1]; [2],0.015
same,"Ig2a, serial dilution 1:204800",[1]; [2],0.008
same,"Ig2b, serial dilution 1:200",[1]; [2],1.420
same,"Ig2b, serial dilution 1:800",[1]; [2],0.505
same,"Ig2b, serial dilution 1:3200",[1]; [2],0.134
same,"Ig2b, serial dilution 1:12800",[1]; [2],0.054
same,"Ig2b, serial dilution 1:51200",[1]; [2],0.014
same,"Ig2b, serial dilution 1:204800",[1]; [2],0.000
same,"Ig3, serial dilution 1:200",[1]; [2],1.132
same,"Ig3, serial dilution 1:800",[1]; [2],0.358
same,"Ig3, serial dilution 1:3200",[1]; [2],0.092
same,"Ig3, serial dilution 1:12800",[1]; [2],0.020
same,"Ig3, serial dilution 1:51200",[1]; [2],0.004
same,"Ig3, serial dilution 1:204800",[1]; [2],0.000
same,"Ig1, serial dilution 1:200",[1]; with MPL,2.642
same,"Ig1, serial dilution 1:800",[1]; with MPL,1.638
same,"Ig1, serial dilution 1:3200",[1]; with MPL,0.652
same,"Ig1, serial dilution 1:12800",[1]; with MPL,0.279
same,"Ig1, serial dilution 1:51200",[1]; with MPL,0.091
same,"Ig1, serial dilution 1:204800",[1]; with MPL,0.014
same,"Ig2a, serial dilution 1:200",[1]; with MPL,1.961
same,"Ig2a, serial dilution 1:800",[1]; with MPL,0.899
same,"Ig2a, serial dilution 1:3200",[1]; with MPL,0.263
same,"Ig2a, serial dilution 1:12800",[1]; with MPL,0.081
same,"Ig2a, serial dilution 1:51200",[1]; with MPL,0.028
same,"Ig2a, serial dilution 1:204800",[1]; with MPL,0.005
same,"Ig2b, serial dilution 1:200",[1]; with MPL,1.872
same,"Ig2b, serial dilution 1:800",[1]; with MPL,0.881
same,"Ig2b, serial dilution 1:3200",[1]; with MPL,0.253
same,"Ig2b, serial dilution 1:12800",[1]; with MPL,0.104
same,"Ig2b, serial dilution 1:51200",[1]; with MPL,0.011
same,"Ig2b, serial dilution 1:204800",[1]; with MPL,0.006
same,"Ig3, serial dilution 1:200",[1]; with MPL,1.965
same,"Ig3, serial dilution 1:800",[1]; with MPL,0.805
same,"Ig3, serial dilution 1:3200",[1]; with MPL,0.215
same,"Ig3, serial dilution 1:12800",[1]; with MPL,0.045
same,"Ig3, serial dilution 1:51200",[1]; with MPL,0.005
same,"Ig3, serial dilution 1:204800",[1]; with MPL,0.000
same,Levels of TH1 preferred isotypes relative to TH2 isotype (IgG1),"[1]; day 42 test bleedings, Table 1, in words",significantly higher signals
same,A 490 1:200 dilution on plates coated with modified HGP-30,"modified HGP-30; day 42, first set of groups (animals 4637-4648, 4674-4678), individual animal",2.178 A 490 and 1.411 A 490 and 2.314 A 490 and 2.555 A 490 and 2.404 A 490 and 2.273 A 490
same,A 490 1:200 dilution on plates coated with modified HGP-30,"modified HGP-30; day 42, first set of groups, Average",2.189 A 490
same,A 490 1:200 dilution on plates coated with modified HGP-30,"modified HGP-30; day 42, second set of groups (animals 4662-4673, 4679-4683), individual animal",1.968 A 490 and 1.422 A 490 and 1.755 A 490 and 2.450 A 490 and 2.403 A 490 and 1.399 A 490
same,A 490 1:200 dilution on plates coated with modified HGP-30,"modified HGP-30; day 42, second set of groups, Average",1.899 A 490
same,ELISA test antigen Modified HGP-30,"modified HGP-30; group (A), Group Average",2.433
same,ELISA test antigen Modified HGP-30,"modified HGP-30; group (A), individual mouse",2.307 and 1.589 and 2.432 and 2.867 and 2.627 and 2.780
same,ELISA test antigen Modified HGP-30,"modified HGP-30; group (B), Group Average",2.672
same,ELISA test antigen Modified HGP-30,"modified HGP-30; group (B), individual mouse",2.330 and 2.213 and 2.534 and 3.358 and 3.030 and 2.571
same,ELISA signal on modified HGP-30,modified HGP-30; [3],2.737 and 2.471 and 2.569 and 2.093 and 2.512 and 3.115 and 3.153 and 2.922 and 2.236 and 2.534
same,ELISA test antigen D Clade,D Clade; group (A),0.030
same,ELISA test antigen D Clade,D Clade; group (B),0.755
same,ELISA signal on D Clade,D Clade; [3],1.527 and 0.438 and 0.408 and 0.125 and 1.471 and 0.772 and 1.328 and 1.370 and 0.000 and 0.374

# — patent US6951647B2, “T cell binding ligand peptides and method of inducing a cellular immune response” (Cel-Sci Corporation, priority 2001, dated 2005)
